Data published in patent US20230139171A1 (SITA Information Networking Computing UK Limited, priority 2019, published 2023).

Legend:
Assay type in all cases: cell-based
human TLR7 = target: T1, human TLR7 (Homo sapiens, UniProt Q9NYK1); assay: TLR7 inhibition reporter assay (HEK-Blue cells, SEAP reporter, gardiquimod stimulation); conditions: HEK-Blue cells overexpressing human TLR7, SEAP reporter, gardiquimod 7.5 μM; read-out: TLR7 IC50
T1 construct: host or cells: HEK-Blue cells
T1 sequence (Q9NYK1 27-1049): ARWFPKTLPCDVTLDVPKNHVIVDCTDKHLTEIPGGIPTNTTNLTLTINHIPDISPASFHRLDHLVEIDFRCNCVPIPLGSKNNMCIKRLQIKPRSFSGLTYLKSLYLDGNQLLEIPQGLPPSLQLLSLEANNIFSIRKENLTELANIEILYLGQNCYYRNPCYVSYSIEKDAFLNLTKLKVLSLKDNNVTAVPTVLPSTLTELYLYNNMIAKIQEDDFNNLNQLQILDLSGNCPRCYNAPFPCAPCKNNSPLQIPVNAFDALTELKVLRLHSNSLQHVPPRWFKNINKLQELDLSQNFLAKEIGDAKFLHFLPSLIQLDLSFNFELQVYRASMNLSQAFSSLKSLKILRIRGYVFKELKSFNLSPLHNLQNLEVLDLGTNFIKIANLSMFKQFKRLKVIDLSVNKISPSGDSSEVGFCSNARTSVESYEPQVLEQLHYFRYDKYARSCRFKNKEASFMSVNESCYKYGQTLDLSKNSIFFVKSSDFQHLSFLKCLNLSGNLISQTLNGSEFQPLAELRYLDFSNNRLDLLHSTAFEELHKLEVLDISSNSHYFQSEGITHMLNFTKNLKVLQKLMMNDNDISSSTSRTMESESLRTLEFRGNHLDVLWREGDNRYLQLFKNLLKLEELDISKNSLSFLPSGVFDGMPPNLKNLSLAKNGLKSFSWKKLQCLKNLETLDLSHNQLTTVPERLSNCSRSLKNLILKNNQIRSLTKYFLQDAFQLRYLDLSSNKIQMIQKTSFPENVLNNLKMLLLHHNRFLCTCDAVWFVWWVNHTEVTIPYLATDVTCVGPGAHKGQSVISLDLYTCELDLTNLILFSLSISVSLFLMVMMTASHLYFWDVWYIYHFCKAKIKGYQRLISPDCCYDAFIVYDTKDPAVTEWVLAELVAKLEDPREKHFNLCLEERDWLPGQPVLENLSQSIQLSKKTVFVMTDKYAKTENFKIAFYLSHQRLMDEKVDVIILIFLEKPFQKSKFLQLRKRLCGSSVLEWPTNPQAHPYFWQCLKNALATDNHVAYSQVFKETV
Procedure, shortened: (§1)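 Screening used HEK-Blue cells overexpressing one human TLR (7, 8 or 9) and an IFN-β minimal promoter–NF-κB/AP-1 SEAP construct. Stimulation lasted 22 h at 37 °C with receptor-specific agonist: gardiquimod, R848 or ODN2006 at 7.5 μM, 15.9 μM and 5 nM.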

human TLR9 = target: T2, human TLR9 (Homo sapiens, UniProt Q9NR96); assay: TLR9 inhibition reporter assay (HEK-Blue cells, SEAP reporter, ODN2006 stimulation); conditions: HEK-Blue cells overexpressing human TLR9, SEAP reporter, ODN2006 5 nM
T2 construct: host or cells: HEK-Blue cells
T2 sequence (Q9NR96 26-1032): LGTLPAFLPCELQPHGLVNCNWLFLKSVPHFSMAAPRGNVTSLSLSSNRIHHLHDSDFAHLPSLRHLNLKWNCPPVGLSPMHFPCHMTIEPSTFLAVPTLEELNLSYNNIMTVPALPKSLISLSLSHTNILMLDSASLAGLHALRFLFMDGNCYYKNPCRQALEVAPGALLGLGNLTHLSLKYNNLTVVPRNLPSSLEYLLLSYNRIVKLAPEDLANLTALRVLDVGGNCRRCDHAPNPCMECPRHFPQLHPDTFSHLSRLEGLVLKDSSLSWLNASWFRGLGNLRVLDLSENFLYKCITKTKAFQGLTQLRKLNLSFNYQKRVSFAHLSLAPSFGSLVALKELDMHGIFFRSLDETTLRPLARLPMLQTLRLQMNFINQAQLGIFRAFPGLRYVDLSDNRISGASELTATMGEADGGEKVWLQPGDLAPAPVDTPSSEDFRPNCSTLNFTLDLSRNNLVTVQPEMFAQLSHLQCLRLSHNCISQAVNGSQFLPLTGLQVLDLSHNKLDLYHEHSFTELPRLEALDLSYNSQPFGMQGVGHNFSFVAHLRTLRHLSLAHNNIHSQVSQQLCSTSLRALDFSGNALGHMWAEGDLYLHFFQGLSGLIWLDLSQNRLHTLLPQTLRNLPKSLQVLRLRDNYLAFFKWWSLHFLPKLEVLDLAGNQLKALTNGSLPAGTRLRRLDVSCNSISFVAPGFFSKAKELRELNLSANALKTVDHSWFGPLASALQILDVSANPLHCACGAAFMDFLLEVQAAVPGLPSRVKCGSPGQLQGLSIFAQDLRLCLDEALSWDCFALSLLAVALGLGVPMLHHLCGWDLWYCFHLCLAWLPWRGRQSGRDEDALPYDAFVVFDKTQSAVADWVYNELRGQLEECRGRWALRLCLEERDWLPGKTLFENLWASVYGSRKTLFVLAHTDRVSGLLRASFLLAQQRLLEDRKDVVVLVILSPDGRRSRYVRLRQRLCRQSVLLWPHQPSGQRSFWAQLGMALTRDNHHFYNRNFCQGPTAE
Procedure, shortened: as §1

human TLR8 = target: T3, human TLR8 (Homo sapiens, UniProt Q9NR97); assay: TLR8 inhibition reporter assay (HEK-Blue cells, SEAP reporter, R848 stimulation); conditions: HEK-Blue cells overexpressing human TLR8, SEAP reporter, R848 15.9 μM; read-out: TLR8 IC50
T3 construct: host or cells: HEK-Blue cells
T3 sequence (Q9NR97 27-1041): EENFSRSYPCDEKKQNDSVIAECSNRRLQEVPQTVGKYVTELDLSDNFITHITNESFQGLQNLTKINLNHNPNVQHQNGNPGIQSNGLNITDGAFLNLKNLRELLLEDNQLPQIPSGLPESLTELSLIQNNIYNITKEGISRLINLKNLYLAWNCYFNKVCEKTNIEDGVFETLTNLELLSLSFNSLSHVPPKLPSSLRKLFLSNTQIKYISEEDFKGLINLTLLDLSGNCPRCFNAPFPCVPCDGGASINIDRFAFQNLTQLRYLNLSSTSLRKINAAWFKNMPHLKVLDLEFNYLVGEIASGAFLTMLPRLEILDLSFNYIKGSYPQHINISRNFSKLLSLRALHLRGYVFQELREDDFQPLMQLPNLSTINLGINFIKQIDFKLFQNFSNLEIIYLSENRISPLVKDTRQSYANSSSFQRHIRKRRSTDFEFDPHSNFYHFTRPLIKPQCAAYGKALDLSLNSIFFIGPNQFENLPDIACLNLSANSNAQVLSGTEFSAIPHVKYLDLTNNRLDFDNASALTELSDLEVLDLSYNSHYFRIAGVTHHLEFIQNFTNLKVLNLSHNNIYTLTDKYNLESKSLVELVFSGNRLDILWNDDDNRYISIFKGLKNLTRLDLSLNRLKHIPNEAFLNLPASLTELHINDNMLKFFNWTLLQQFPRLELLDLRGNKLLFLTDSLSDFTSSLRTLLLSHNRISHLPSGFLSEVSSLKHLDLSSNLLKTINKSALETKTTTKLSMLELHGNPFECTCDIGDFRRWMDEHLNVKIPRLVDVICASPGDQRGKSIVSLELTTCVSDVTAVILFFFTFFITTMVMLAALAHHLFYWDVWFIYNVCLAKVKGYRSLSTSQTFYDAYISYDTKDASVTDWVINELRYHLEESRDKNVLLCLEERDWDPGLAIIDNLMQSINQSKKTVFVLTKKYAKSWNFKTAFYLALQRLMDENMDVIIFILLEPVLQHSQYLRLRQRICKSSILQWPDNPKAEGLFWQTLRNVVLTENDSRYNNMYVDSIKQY
Procedure, shortened: as §1

| IC50 (human TLR7) [nM] | IC50 (human TLR9) [nM] | IC50 (human TLR8) [nM] | SMILES |
| --- | --- | --- | --- |
| 4.64 | 25500 | 3.41 | Cc1c(-c2[nH]c3sc(C4CCC(N5CCOCC5)CC4)nc3c2C(C)C)cn2ncnc2c1C (single isomer, unassigned) [Example 213, 4-(4-(5-(7,8-dimethyl-[1,2,4]triazolo[1,5-a]pyridin-6-yl)-6-isopropyl-4H-pyrrolo[3,2-d]thiazol-2-yl)cyclohexyl) morpholine] |
| 0.72 | 6520 | 1.02 | Cc1c(-c2[nH]c3sc(C4CCC(N5CCC5)CC4)nc3c2C(C)C)cn2ncnc2c1C (single isomer, unassigned) [Example 216, 2-(4-(azetidin-1-yl)cyclohexyl)-5-(7,8-dimethyl-[1,2,4]triazolo[1,5-a]pyridin-6-yl)-6-isopropyl-4H-pyrrolo[3,2-d]thiazole] |
| 2.41 | 5870 | 5.3 | Cc1c(-c2[nH]c3sc(C4CCC(N5CCC5)CC4)nc3c2C(C)C)cn2ncnc2c1C (single isomer, unassigned) [Example 217, 2-(4-(azetidin-1-yl)cyclohexyl)-5-(7,8-dimethyl-[1,2,4]triazolo[1,5-a]pyridin-6-yl)-6-isopropyl-4H-pyrrolo[3,2-d]thiazole] |
| 637 | 46200 | 713 | Cc1c(-c2[nH]c3sc(C4CCC(N5CC(F)(F)C5)CC4)nc3c2C(C)C)cn2ncnc2c1C (single isomer, unassigned) [Example 219, 2-(4-(3,3-difluoroazetidin-1-yl)cyclohexyl)-5-(7,8-dimethyl-[1,2,4]triazolo[1,5-a]pyridin-6-yl)-6-isopropyl-4H-pyrrolo[3,2-d]thiazole] |
| 1.4 | > 50000 | 4.38 | Cc1c(-c2[nH]c3sc(C4CCC(N5CCNC(=O)C5)CC4)nc3c2C(C)C)cn2ncnc2c1C (single isomer, unassigned) [Example 220, 4-(4-(5-(7,8-dimethyl-[1,2,4]triazolo[1,5-a]pyridin-6-yl)-6-isopropyl-4H-pyrrolo[3,2-d]thiazol-2-yl)cyclohexyl) piperazin-2-one] |
| 3.08 | > 50000 | 33.3 | Cc1c(-c2[nH]c3sc(C4CCC(N5CCNC(=O)C5)CC4)nc3c2C(C)C)cn2ncnc2c1C (single isomer, unassigned) [Example 221, 4-(4-(5-(7,8-dimethyl-[1,2,4]triazolo[1,5-a]pyridin-6-yl)-6-isopropyl-4H-pyrrolo[3,2-d]thiazol-2-yl)cyclohexyl) piperazin-2-one] |

The remaining lines, values behind:

| SMILES | IC50 (human TLR7) [nM] | IC50 (human TLR9) [nM] | IC50 (human TLR8) [nM] |
| --- | --- | --- | --- |
| Cc1c(-c2[nH]c3sc(C4CCC(NCC5(S(C)(=O)=O)CC5)CC4)nc3c2C(C)C)cn2ncnc2c1C (single isomer, unassigned) [Example 214, 4-(5-(7,8-dimethyl-[1,2,4]triazolo[1,5-a]pyridin-6-yl)-6-isopropyl-4H-pyrrolo[3,2-d]thiazol-2-yl)-N-((1-(methylsulfonyl)cyclopropyl)methyl) cyclohexan-1-amine] | 1.37 | 10300 | 0.39 |
| Cc1c(-c2[nH]c3sc(C4CCC(NCC5(S(C)(=O)=O)CC5)CC4)nc3c2C(C)C)cn2ncnc2c1C (single isomer, unassigned) [Example 215, 4-(5-(7,8-dimethyl-[1,2,4]triazolo[1,5-a]pyridin-6-yl)-6-isopropyl-4H-pyrrolo[3,2-d]thiazol-2-yl)-N-((1-(methylsulfonyl)cyclopropyl)methyl) cyclohexan-1-amine] | 2.3 | 15000 | 6 |
| Cc1c(-c2[nH]c3sc(C4CCC(N5CC(F)(F)C5)CC4)nc3c2C(C)C)cn2ncnc2c1C (single isomer, unassigned) [Example 218, 2-(4-(3,3-difluoroazetidin-1-yl)cyclohexyl)-5-(7,8-dimethyl-[1,2,4]triazolo[1,5-a]pyridin-6-yl)-6-isopropyl-4H-pyrrolo[3,2-d]thiazole] | 1.44 | 35900 | 18.6 |
| Cc1c(-c2[nH]c3sc(C4CCC(N(C)C(C)C)CC4)nc3c2C(C)C)cn2ncnc2c1C (single isomer, unassigned) [Example 222, 4-(5-(7,8-dimethyl-[1,2,4]triazolo[1,5-a]pyridin-6-yl)-6-isopropyl-4H-pyrrolo[3,2-d]thiazol-2-yl)-N-isopropyl-N-methylcyclohexan-1-amine] | 0.75 | 30400 | 1.94 |
| Cc1c(-c2[nH]c3sc(C4CCC(N(C)C(C)C)CC4)nc3c2C(C)C)cn2ncnc2c1C (single isomer, unassigned) [Example 223, 4-(5-(7,8-dimethyl-[1,2,4]triazolo[1,5-a]pyridin-6-yl)-6-isopropyl-4H-pyrrolo[3,2-d]thiazol-2-yl)-N-isopropyl-N-methylcyclohexan-1-amine] | 8.65 | 14300 | 10.3 |
